± gives the standard deviation of the averaged measurements.
Assays:
VISMODEGIB = compound: CS(=O)(=O)c1ccc(C(=O)Nc2ccc(Cl)c(-c3ccccn3)c2)c(Cl)c1 [VISMODEGIB]; experiment: surviving fraction relative to DMSO-only wells; higher = less growth inhibition; settings: exposure time: 5 days
Method in brief: (§1)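 Tumour cell lines in log phase were plated in 384-well plates at 250–500 cells per well, then, after 24 hours, exposed continuously for five days to inhibitors at 0.5, 1, 5, 10, 50, 100, 500 and 1000 nM. Viability came from CellTiter-Glo luminescence, and surviving fraction is that signal normalised to the median of DMSO-only wells. Plates were read after 10 minutes at room temperature, and each line, screened three times, was kept only when replicate Pearson r was >0.7 and median Z' was >0.3.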

DECITABINE = compound: Nc1ncn([C@H]2C[C@H](O)[C@@H](CO)O2)c(=O)n1 [DECITABINE]; experiment: as above; settings: exposure time: 5 days
Method in brief: as §1

Test System | surviving fraction (VISMODEGIB; 0.5 nM) | surviving fraction (VISMODEGIB; 1 nM) | surviving fraction (VISMODEGIB; 5 nM) | surviving fraction (VISMODEGIB; 10 nM) | surviving fraction (VISMODEGIB; 50 nM) | surviving fraction (VISMODEGIB; 100 nM) | surviving fraction (VISMODEGIB; 500 nM) | surviving fraction (VISMODEGIB; 1000 nM) | surviving fraction (DECITABINE; 0.5 nM) | surviving fraction (DECITABINE; 1 nM) | surviving fraction (DECITABINE; 5 nM) | surviving fraction (DECITABINE; 10 nM) | surviving fraction (DECITABINE; 50 nM) | surviving fraction (DECITABINE; 100 nM) | surviving fraction (DECITABINE; 500 nM) | surviving fraction (DECITABINE; 1000 nM)
22RV1 PROSTATE | 1.01 ± 0.061 | 1.04 ± 0.029 | 0.962 ± 0.013 | 0.974 ± 0.0072 | 0.924 ± 0.037 | 1.102 ± 0.0057 | 1.04 ± 0.022 | 1.09 ± 0.068 | 1.01 ± 0.024 | 0.935 ± 0.23 | 0.964 ± 0.19 | 0.897 ± 0.19 | 0.881 ± 0.27 | 0.801 ± 0.16 | 0.614 ± 0.17 | 0.509 ± 0.15
93VU HEADNECK | 0.962 ± 0.03 | 1.08 ± 0.057 | 1.06 ± 0.03 | 1.02 ± 0.14 | 0.868 ± 0.025 | 0.964 ± 0.093 | 0.849 ± 0.061 | 0.915 ± 0.04 | 1.12 ± 0.086 | 1.09 ± 0.1 | 1.14 ± 0.12 | 1 ± 0.015 | 0.931 ± 0.035 | 0.933 ± 0.017 | 0.747 ± 0.03 | 0.657 ± 0.007
143B BONE | 0.945 ± 0.063 | 0.98 ± 0.047 | 0.932 ± 0.1 | 0.993 ± 0.069 | 0.966 ± 0.042 | 0.965 ± 0.013 | 1.01 ± 0.046 | 1.01 ± 0.057 | 1.09 ± 0.088 | 1.08 ± 0.09 | 1.09 ± 0.067 | 1.1 ± 0.069 | 1.13 ± 0.11 | 1.11 ± 0.076 | 0.992 ± 0.11 | 0.956 ± 0.031
A549 LUNG | 0.979 ± 0.018 | 0.9893 ± 0.0035 | 1.01 ± 0.033 | 1.02 ± 0.045 | 0.994 ± 0.017 | 1.06 ± 0.035 | 1.01 ± 0.032 | 1.03 ± 0.069 | 1.05 ± 0.027 | 1.031 ± 0.0066 | 1.03 ± 0.017 | 0.992 ± 0.016 | 1.03 ± 0.017 | 1.03 ± 0.03 | 1.02 ± 0.036 | 0.908 ± 0.031
ASKA SYNOVIAL | 1.04 ± 0.03 | 1.07 ± 0.046 | 1.08 ± 0.086 | 1.11 ± 0.039 | 0.939 ± 0.03 | 0.964 ± 0.05 | 0.926 ± 0.048 | 0.951 ± 0.055 | 1.04 ± 0.07 | 1.01 ± 0.085 | 1.04 ± 0.026 | 1.03 ± 0.043 | 1.03 ± 0.067 | 0.952 ± 0.079 | 0.711 ± 0.075 | 0.6847 ± 0.0058
BT20 BREAST | 1.08 ± 0.13 | 0.977 ± 0.039 | 1.01 ± 0.062 | 1.02 ± 0.048 | 0.964 ± 0.086 | 0.901 ± 0.058 | 0.898 ± 0.032 | 0.907 ± 0.11 | 1.24 ± 0.16 | 1.14 ± 0.086 | 1.33 ± 0.072 | 1.28 ± 0.12 | 1.46 ± 0.037 | 1.33 ± 0.073 | 1.1 ± 0.075 | 0.844 ± 0.069
BT549 BREAST | 1.02 ± 0.047 | 1.01 ± 0.12 | 1.09 ± 0.15 | 1.09 ± 0.15 | 0.76 ± 0.23 | 0.799 ± 0.19 | 0.744 ± 0.071 | 0.75 ± 0.018 | 1.16 ± 0.084 | 1.16 ± 0.23 | 0.976 ± 0.095 | 1.06 ± 0.042 | 0.721 ± 0.051 | 0.724 ± 0.045 | 0.537 ± 0.064 | 0.452 ± 0.058
C33A CERVIX | 0.872 ± 0.066 | 1.007 ± 0.0076 | 1.12 ± 0.087 | 0.985 ± 0.061 | 0.879 ± 0.066 | 1 ± 0.069 | 0.851 ± 0.055 | 0.953 ± 0.066 | 0.969 ± 0.043 | 0.941 ± 0.064 | 0.963 ± 0.045 | 1.06 ± 0.036 | 0.9227 ± 0.0078 | 0.909 ± 0.075 | 0.697 ± 0.1 | 0.685 ± 0.082
CADOES1 SOFT TISSUE | 0.884 ± 0.024 | 0.935 ± 0.085 | 0.968 ± 0.1 | 0.914 ± 0.056 | 0.952 ± 0.047 | 1.05 ± 0.091 | 0.979 ± 0.056 | 0.964 ± 0.073 | 0.915 ± 0.1 | 0.962 ± 0.14 | 0.772 ± 0.11 | 0.951 ± 0.047 | 0.596 ± 0.096 | 0.448 ± 0.05 | 0.316 ± 0.061 | 0.278 ± 0.041
CAL51 BREAST | 0.895 ± 0.042 | 0.923 ± 0.013 | 0.9295 ± 0.0062 | 0.931 ± 0.043 | 0.931 ± 0.056 | 0.975 ± 0.071 | 0.9558 ± 0.009 | 0.963 ± 0.01 | 1.03 ± 0.028 | 0.98 ± 0.034 | 1 ± 0.041 | 0.952 ± 0.046 | 0.95 ± 0.12 | 0.865 ± 0.15 | 0.586 ± 0.077 | 0.481 ± 0.021
CAL72 BONE | 0.994 ± 0.016 | 1.01 ± 0.017 | 1.021 ± 0.0075 | 0.9987 ± 0.0091 | 0.919 ± 0.042 | 0.934 ± 0.025 | 0.922 ± 0.033 | 0.938 ± 0.037 | 1.04 ± 0.069 | 1.04 ± 0.03 | 1.03 ± 0.088 | 1.028 ± 0.01 | 1.06 ± 0.097 | 1.03 ± 0.14 | 0.958 ± 0.097 | 0.782 ± 0.2
CAL120 BREAST | 0.987 ± 0.019 | 0.968 ± 0.018 | 0.999 ± 0.012 | 1 ± 0.012 | 0.997 ± 0.021 | 1.01 ± 0.013 | 0.942 ± 0.013 | 0.989 ± 0.016 | 0.952 ± 0.053 | 0.929 ± 0.059 | 0.948 ± 0.072 | 0.952 ± 0.044 | 0.995 ± 0.038 | 0.967 ± 0.018 | 0.806 ± 0.017 | 0.717 ± 0.037
CASKI CERVIX | 0.939 ± 0.035 | 0.979 ± 0.026 | 0.958 ± 0.026 | 0.973 ± 0.046 | 0.828 ± 0.049 | 0.893 ± 0.058 | 0.876 ± 0.075 | 0.898 ± 0.084 | 0.891 ± 0.044 | 0.919 ± 0.096 | 0.858 ± 0.056 | 0.898 ± 0.095 | 0.484 ± 0.033 | 0.368 ± 0.042 | 0.214 ± 0.017 | 0.209 ± 0.022
CHLA90 AUTONOMIC GANGLIA | 0.923 ± 0.084 | 0.949 ± 0.06 | 0.962 ± 0.056 | 1.01 ± 0.062 | 0.914 ± 0.079 | 0.925 ± 0.013 | 0.92 ± 0.028 | 0.953 ± 0.041 | 0.953 ± 0.073 | 0.934 ± 0.085 | 0.953 ± 0.06 | 0.902 ± 0.017 | 1.01 ± 0.12 | 0.994 ± 0.099 | 0.984 ± 0.079 | 1 ± 0.063
CME SYNOVIAL | 1.24 ± 0.088 | 1.2 ± 0.12 | 1.2 ± 0.27 | 1.3 ± 0.16 | 1.07 ± 0.098 | 1.12 ± 0.13 | 1.03 ± 0.17 | 0.9627 ± 0.0064 | 1.27 ± 0.17 | 1.09 ± 0.072 | 1.19 ± 0.081 | 1.19 ± 0.089 | 0.987 ± 0.083 | 0.812 ± 0.063 | 0.484 ± 0.022 | 0.48 ± 0.042
COLO320DM LARGE INTESTINE | 1.02 ± 0.063 | 1.03 ± 0.12 | 1.14 ± 0.081 | 1.06 ± 0.069 | 1.05 ± 0.094 | 1.02 ± 0.087 | 1.04 ± 0.092 | 0.977 ± 0.095 | 1.12 ± 0.044 | 1.12 ± 0.086 | 1.01 ± 0.076 | 1.03 ± 0.048 | 1.03 ± 0.071 | 0.928 ± 0.014 | 0.8568 ± 0.0037 | 0.792 ± 0.04

Source: the supplement of paper PMC6045584
